Article PMC5433425 (PeerJ, 2017)
Several values for one entry are separate records, joined by “and”; a condition that tells them apart may be missing. Identical values can stand only once. Peptide text beside a SMILES is read from it. * marks the point of attachment. βNA = c1ccc2cc(N*)ccc2c1

Experiments:
E. coli AG100 [1] = assay: EtBr efflux by real-time fluorometry; details: 80 µM
Description: Control tubes with only cells and cells with and without 0.4% glucose were included. The fluorescence was measured in a Rotor-Gene 3000 and the data was acquired every 30 s for 30 min at 37 °C. The efflux activity was quantified by comparing the fluorescence data obtained under conditions that promote efflux (presence of glucose and absence of efflux inhibitor) with the data from the control in which the bacteria are under conditions of no efflux (presence of an inhibitor and no energy source).

E. coli AG100 [2] = assay: Membrane permeability assay (Live/Dead BacLight)
[3] = 80 uM, raw well reading, listed as PAN

In the case of NC(N)=NCCC[C@H](NC(=O)[C@@H](N)Cc1ccccc1)C(=O)Nc1ccc2ccccc2c1 [PAβN] (H-Phe-Arg-βNA), the “EtBr fluorescence (Channel Cycling A.530/585hp)” value (“EtBr fluorescence” below) (E. coli AG100 [1]; cycle 8, without glucose) is reported as 1.378, the “EtBr fluorescence” value (E. coli AG100 [1]; cycle 9, + glucose) is reported as 1.339 and the “EtBr fluorescence” value (E. coli AG100 [1]; cycle 9, without glucose) is reported as 1.359. For the same compound, the “EtBr fluorescence” value (E. coli AG100 [1]; cycle 10, + glucose) was 1.264, the “EtBr fluorescence” value (E. coli AG100 [1]; cycle 10, without glucose) was 1.368 and the “EtBr fluorescence” value (E. coli AG100 [1]; cycle 11, + glucose) was 1.2447. The “EtBr fluorescence” value (E. coli AG100 [1]; cycle 11, without glucose) was 1.355, the “EtBr fluorescence” value (E. coli AG100 [1]; cycle 12, + glucose) was 1.251 and the “EtBr fluorescence” value (E. coli AG100 [1]; cycle 12, without glucose) was 1.312. The “EtBr fluorescence” value (E. coli AG100 [1]; cycle 13, + glucose) was 1.259, the “EtBr fluorescence” value (E. coli AG100 [1]; cycle 13, without glucose) was 1.3469 and the “EtBr fluorescence” value (E. coli AG100 [1]; cycle 14, + glucose) was 1.222. For the same compound, the “EtBr fluorescence” value (E. coli AG100 [1]; cycle 14, without glucose) was 1.257, the “EtBr fluorescence” value (E. coli AG100 [1]; cycle 15, + glucose) was 1.22 and the “EtBr fluorescence” value (E. coli AG100 [1]; cycle 15, without glucose) was 1.235. For the same compound, the “EtBr fluorescence” value (E. coli AG100 [1]; cycle 16, + glucose) was 1.167, the “EtBr fluorescence” value (E. coli AG100 [1]; cycle 16, without glucose) was 1.232 and the “EtBr fluorescence” value (E. coli AG100 [1]; cycle 17, + glucose) was 1.194. The “EtBr fluorescence” value (E. coli AG100 [1]; cycle 17, without glucose) was 1.242, the “EtBr fluorescence” value (E. coli AG100 [1]; cycle 18, + glucose) was 1.167 and the “EtBr fluorescence” value (E. coli AG100 [1]; cycle 18, without glucose) was 1.283. For the same compound, the “EtBr fluorescence” value (E. coli AG100 [1]; cycle 19, + glucose) was 1.179, the “EtBr fluorescence” value (E. coli AG100 [1]; cycle 19, without glucose) was 1.241 and the “EtBr fluorescence” value (E. coli AG100 [1]; cycle 20, + glucose) was 1.201. The “EtBr fluorescence” value (E. coli AG100 [1]; cycle 20, without glucose) was 1.199, the “EtBr fluorescence” value (E. coli AG100 [1]; cycle 21, + glucose) was 1.201 and the “EtBr fluorescence” value (E. coli AG100 [1]; cycle 21, without glucose) was 1.185. The “EtBr fluorescence” value (E. coli AG100 [1]; cycle 22, + glucose) was 1.145, the “EtBr fluorescence” value (E. coli AG100 [1]; cycle 22, without glucose) was 1.19 and the “EtBr fluorescence” value (E. coli AG100 [1]; cycle 23, + glucose) was 1.181. For the same compound, the “EtBr fluorescence” value (E. coli AG100 [1]; cycle 23, without glucose) was 1.1696, the “EtBr fluorescence” value (E. coli AG100 [1]; cycle 24, + glucose) was 1.1726 and the “EtBr fluorescence” value (E. coli AG100 [1]; cycle 24, without glucose) was 1.092. For the same compound, the “EtBr fluorescence” value (E. coli AG100 [1]; cycle 25, + glucose) was 1.158, the “EtBr fluorescence” value (E. coli AG100 [1]; cycle 25, without glucose) was 1.1723 and the “EtBr fluorescence” value (E. coli AG100 [1]; cycle 26, + glucose) was 1.17. For the same compound, the “EtBr fluorescence” value (E. coli AG100 [1]; cycle 26, without glucose) was 1.164, the “EtBr fluorescence” value (E. coli AG100 [1]; cycle 27, + glucose) was 1.169 and the “EtBr fluorescence” value (E. coli AG100 [1]; cycle 27, without glucose) was 1.126. The “EtBr fluorescence” value (E. coli AG100 [1]; cycle 28, + glucose) was 1.177, the “EtBr fluorescence” value (E. coli AG100 [1]; cycle 28, without glucose) was 1.147 and the “EtBr fluorescence” value (E. coli AG100 [1]; cycle 29, + glucose) was 1.1781. The “EtBr fluorescence” value (E. coli AG100 [1]; cycle 29, without glucose) was 1.123, the “EtBr fluorescence” value (E. coli AG100 [1]; cycle 30, + glucose) was 1.125 and the “EtBr fluorescence” value (E. coli AG100 [1]; cycle 30, without glucose) was 1.105. For the same compound, the “EtBr fluorescence” value (E. coli AG100 [1]; cycle 31, + glucose) was 1.166, the “EtBr fluorescence” value (E. coli AG100 [1]; cycle 31, without glucose) was 1.145 and the “EtBr fluorescence” value (E. coli AG100 [1]; cycle 32, + glucose) was 1.148. For the same compound, the “EtBr fluorescence” value (E. coli AG100 [1]; cycle 32, without glucose) was 1.083, the “EtBr fluorescence” value (E. coli AG100 [1]; cycle 33, + glucose) was 1.1593 and the “EtBr fluorescence” value (E. coli AG100 [1]; cycle 33, without glucose) was 1.053. For the same compound, the “EtBr fluorescence” value (E. coli AG100 [1]; cycle 34, + glucose) was 1.173, the “EtBr fluorescence” value (E. coli AG100 [1]; cycle 34, without glucose) was 1.055 and the “EtBr fluorescence” value (E. coli AG100 [1]; cycle 35, + glucose) was 1.1603. The “EtBr fluorescence” value (E. coli AG100 [1]; cycle 35, without glucose) was 1.086, the “EtBr fluorescence” value (E. coli AG100 [1]; cycle 36, + glucose) was 1.157 and the “EtBr fluorescence” value (E. coli AG100 [1]; cycle 36, without glucose) was 1.095. The “EtBr fluorescence” value (E. coli AG100 [1]; cycle 37, + glucose) was 1.1393, the “EtBr fluorescence” value (E. coli AG100 [1]; cycle 37, without glucose) was 1.081 and the “EtBr fluorescence” value (E. coli AG100 [1]; cycle 38, + glucose) was 1.174. The “EtBr fluorescence” value (E. coli AG100 [1]; cycle 38, without glucose) was 1.066, the “EtBr fluorescence” value (E. coli AG100 [1]; cycle 39, + glucose) was 1.096 and the “EtBr fluorescence” value (E. coli AG100 [1]; cycle 39, without glucose) was 1.058. For the same compound, the “EtBr fluorescence” value (E. coli AG100 [1]; cycle 40, + glucose) was 1.115, the “EtBr fluorescence” value (E. coli AG100 [1]; cycle 40, without glucose) was 1.043 and the “EtBr fluorescence” value (E. coli AG100 [1]; cycle 41, + glucose) was 1.134. For the same compound, the “EtBr fluorescence” value (E. coli AG100 [1]; cycle 41, without glucose) was 1.067, the “EtBr fluorescence” value (E. coli AG100 [1]; cycle 42, + glucose) was 1.162 and the “EtBr fluorescence” value (E. coli AG100 [1]; cycle 42, without glucose) was 1.058. The “EtBr fluorescence” value (E. coli AG100 [1]; cycle 43, + glucose) was 1.125, the “EtBr fluorescence” value (E. coli AG100 [1]; cycle 43, without glucose) was 1.031 and the “EtBr fluorescence” value (E. coli AG100 [1]; cycle 44, + glucose) was 1.108. The “EtBr fluorescence” value (E. coli AG100 [1]; cycle 44, without glucose) was 1.002, the “EtBr fluorescence” value (E. coli AG100 [1]; cycle 45, without glucose) was 0.9943 and the “EtBr fluorescence” value (E. coli AG100 [1]; cycle 46, without glucose) was 1.025. The “EtBr fluorescence” value (E. coli AG100 [1]; cycle 47, without glucose) was 1.03, the “EtBr fluorescence” value (E. coli AG100 [1]; cycle 48, without glucose) was 1.056 and the “EtBr fluorescence” value (E. coli AG100 [1]; cycle 49, without glucose) was 1.07. The “EtBr fluorescence” value (E. coli AG100 [1]; cycle 50, without glucose) was 1.062, the “EtBr fluorescence” value (E. coli AG100 [1]; cycle 51, without glucose) was 1.026 and the “EtBr fluorescence” value (E. coli AG100 [1]; cycle 52, without glucose) was 1.029. The “EtBr fluorescence” value (E. coli AG100 [1]; cycle 53, without glucose) was 1.04, the “EtBr fluorescence” value (E. coli AG100 [1]; cycle 54, without glucose) was 1.019 and the “EtBr fluorescence” value (E. coli AG100 [1]; cycle 55, without glucose) was 0.9589. For the same compound, the “EtBr fluorescence” value (E. coli AG100 [1]; cycle 56, without glucose) was 0.9927, the “EtBr fluorescence” value (E. coli AG100 [1]; cycle 57, without glucose) was 1.017 and the “EtBr fluorescence” value (E. coli AG100 [1]; cycle 58, without glucose) was 0.9905. The “EtBr fluorescence” value (E. coli AG100 [1]; cycle 59, without glucose) was 1.041, the “EtBr fluorescence” value (E. coli AG100 [1]; cycle 60, without glucose) was 1.02 and the “EtBr fluorescence” value (E. coli AG100 [1]; cycle 61, without glucose) was 1.0374. The “BacLight Live/Dead fluorescence 485/20,528/20” value (E. coli AG100 [2]; [3]) was 168 and 192, the “BacLight Live/Dead fluorescence 485/20,590/35” value (E. coli AG100 [2]; [3]) was 43 and 57 and the “membrane permeability increase / membrane permeation” value (E. coli AG100 [2]; AG100, 80 µM) was 14%.
